“And” between values parts separate entries of the source, which are not always exact repeats. Equal values may be shown once. Inconclusive results and toxic doses are left out.
Tested on: BDF1 mice, B16 melanoma ip, median survival T/C
Assay: NCI In Vivo Anticancer Drug Screen. Data for tumor model B16 Melanoma (intraperitoneal) in B6D2F1 (BDF1) mice
Details: endpoint: median survival time, higher = longer survival
Method in brief: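 In this screen, activity was judged from survival or tumor size in treated versus vehicle-treated tumor-bearing mice, reported as T/C.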

[1] = dose: 50.0 mg/kg/injection, schedule: Q01DX009 (ip), vehicle: saline with Tween-80
[2] = dose: 100.0 mg/kg/injection, schedule: Q01DX009 (ip), vehicle: saline with Tween-80
[3] = dose: 200.0 mg/kg/injection, schedule: Q01DX009 (ip), vehicle: saline with Tween-80
[4] = dose: 25.0 mg/kg/injection, schedule: Q01DX009 (ip), vehicle: Klucel (hydroxypropylcellulose) (HPC)
[5] = dose: 25.0 mg/kg/injection, schedule: Q01DX009 (ip), vehicle: saline
[6] = dose: 50.0 mg/kg/injection, schedule: Q01DX009 (ip), vehicle: saline
[7] = dose: 100.0 mg/kg/injection, schedule: Q01DX009 (ip), vehicle: saline
[8] = dose: 12.5 mg/kg/injection, schedule: Q01DX009 (ip), vehicle: saline with Tween-80
[9] = dose: 25.0 mg/kg/injection, schedule: Q01DX009 (ip), vehicle: saline with Tween-80
[10] = dose: 50.0 mg/kg/injection, schedule: Q01DX009 (ip), vehicle: Klucel (hydroxypropylcellulose) (HPC)
[11] = dose: 100.0 mg/kg/injection, schedule: Q01DX009 (ip), vehicle: Klucel (hydroxypropylcellulose) (HPC)
[12] = dose: 200.0 mg/kg/injection, schedule: Q01DX009 (ip), vehicle: Klucel (hydroxypropylcellulose) (HPC)
[13] = dose: 400.0 mg/kg/injection, schedule: Q01DX009 (ip), vehicle: Klucel (hydroxypropylcellulose) (HPC)
[14] = dose: 12.5 mg/kg/injection, schedule: Q01DX009 (ip), vehicle: saline

Structure (SMILES): CC[C@]12CN3CCc4c([nH]c5ccccc45)[C@@](C(=O)OC)(c4cc5c(cc4OC)N(C)[C@H]4[C@@](O)(C(=O)OC)[C@H](OC(C)=O)[C@]6(CC)C=CCN7CC[C@]54[C@@H]76)CC(C3)[C@H]1O2 (stereo partly drawn)
- T/C (dose: 0.05 mg/kg/injection, schedule: Q01DX009 (ip), vehicle: saline): 106 % of control
- T/C (dose: 0.1 mg/kg/injection, schedule: Q01DX009 (ip), vehicle: saline): 101 % of control
- T/C (dose: 0.2 mg/kg/injection, schedule: Q01DX009 (ip), vehicle: saline): 97 % of control
- T/C (dose: 0.4 mg/kg/injection, schedule: Q01DX009 (ip), vehicle: saline): 113 % of control
- T/C (dose: 0.75 mg/kg/injection, schedule: Q01DX009 (ip), vehicle: Klucel (hydroxypropylcellulose) (HPC)): 107 % of control
- T/C (dose: 0.75 mg/kg/injection, schedule: Q01DX009 (ip), vehicle: saline): 90 % of control
- T/C (dose: 0.8 mg/kg/injection, schedule: Q01DX009 (ip), vehicle: saline): 116 % of control
- T/C (dose: 1.5 mg/kg/injection, schedule: Q01DX009 (ip), vehicle: Klucel (hydroxypropylcellulose) (HPC)): 115 % of control
- T/C (dose: 1.5 mg/kg/injection, schedule: Q04DX003 (ip), vehicle: saline): 102 % of control
- T/C (dose: 1.6 mg/kg/injection, schedule: Q01DX009 (ip), vehicle: saline): 113 % of control
- T/C (dose: 3.0 mg/kg/injection, schedule: Q01DX009 (ip), vehicle: saline): 187 % of control
- T/C (dose: 3.0 mg/kg/injection, schedule: Q04DX003 (ip), vehicle: saline): 111 % of control
- T/C (dose: 3.2 mg/kg/injection, schedule: Q01DX009 (ip), vehicle: saline): 162 % of control
- T/C (dose: 4.0 mg/kg/injection, schedule: Q01DX009 (ip), vehicle: saline): 175 % of control and 202 % of control
- T/C (dose: 6.0 mg/kg/injection, schedule: Q01DX009 (ip), vehicle: saline): 221 % of control [middle of 4 runs]
- T/C (dose: 6.4 mg/kg/injection, schedule: Q01DX009 (ip), vehicle: saline): 157 % of control
- T/C (dose: 9.0 mg/kg/injection, schedule: Q01DX009 (ip), vehicle: saline): 212 % of control and 248 % of control
- T/C (dose: 12.0 mg/kg/injection, schedule: Q01DX009 (ip), vehicle: Klucel (hydroxypropylcellulose) (HPC)): 168 % of control
- T/C (dose: 12.0 mg/kg/injection, schedule: Q01DX009 (ip), vehicle: saline): 161 % of control
- T/C (dose: 12.0 mg/kg/injection, schedule: Q04DX003 (ip), vehicle: saline): 152 % of control
- T/C (dose: 12.8 mg/kg/injection, schedule: Q01DX009 (ip), vehicle: saline): 169 % of control

Structure (SMILES): COc1cccc2c1C(=O)c1c(O)c3c(c(O)c1C2=O)C[C@@](O)(C(=O)CO)C[C@@H]3OC1CC(NC=O)C(O)C(C)O1 (stereo partly drawn)
- T/C (dose: 1.56 mg/kg/injection, schedule: Q01DX009 (ip), vehicle: other): 118 % of control
- T/C (dose: 6.25 mg/kg/injection, schedule: Q01DX009 (ip), vehicle: other): 185 % of control
- T/C (dose: 12.5 mg/kg/injection, schedule: Q01DX009 (ip), vehicle: other): 171 % of control and 203 % of control
- T/C (dose: 25.0 mg/kg/injection, schedule: Q01DX009 (ip), vehicle: other): 194 % of control
- T/C (dose: 50.0 mg/kg/injection, schedule: Q01DX009 (ip), vehicle: other): 198 % of control and 259 % of control
- T/C (dose: 100.0 mg/kg/injection, schedule: Q01DX009 (ip), vehicle: other): 259 % of control

Structure (SMILES): CCCCN(CCCC)c1ccc(C(=O)O)cc1
- T/C [1]: 102 % of control
- T/C [2]: 94 % of control
- T/C [3]: 103 % of control

Structure (SMILES): CCCCCCCCCCCCCCCCC(C(=O)O)C(O)(CC(=O)O)C(=O)O (stereo not drawn)
- T/C (dose: 12.5 mg/kg/injection, schedule: Q01DX009 (ip), vehicle: Klucel (hydroxypropylcellulose) (HPC)): 101 % of control
- T/C [4]: 90 % of control

Structure (SMILES): COc1ccc2c3c1OC1C4(CCC5C(C2)N(CC2CC2)CCC351)OCCO4 (stereo not drawn)
- T/C [5]: 97 % of control
- T/C [6]: 97 % of control
- T/C [7]: 90 % of control

Structure (SMILES): C[CH2][Pb]([Br])([CH2]C)[CH2]C
- T/C (dose: 3.12 mg/kg/injection, schedule: Q01DX009 (ip), vehicle: saline with Tween-80): 91 % of control
- T/C (dose: 6.25 mg/kg/injection, schedule: Q01DX009 (ip), vehicle: saline with Tween-80): 94 % of control
- T/C [8]: 89 % of control
- T/C [9]: 94 % of control

Structure (SMILES): CCOC(=O)C(OCC)P(=O)(OCC)OCC (stereo not drawn)
- T/C [4]: 95 % of control
- T/C [10]: 95 % of control
- T/C [11]: 107 % of control
- T/C [12]: 102 % of control
- T/C [13]: 100 % of control

Structure (SMILES): C[C@@H]1CC[C@]2(C)CC[C@]3(C)C(=CC[C@@H]4[C@@]5(C)CC[C@@H](OC(=O)c6ccc(O)cc6)C(C)(C)[C@@H]5C[C@H](O)[C@]43C)[C@@H]2[C@H]1C(=O)O
- T/C (dose: 0.02 mg/kg/injection, schedule: Q01DX009 (ip), vehicle: saline with Tween-80): 96 % of control
- T/C (dose: 0.05 mg/kg/injection, schedule: Q01DX009 (ip), vehicle: saline with Tween-80): 91 % of control
- T/C (dose: 0.1 mg/kg/injection, schedule: Q01DX009 (ip), vehicle: saline with Tween-80): 88 % of control

Structure (SMILES): N/N=C(\N)c1nn(C2OC(CO)C(O)C2O)c2ncnc(N)c12 (stereo not drawn)
- T/C (dose: 40.0 mg/kg/injection, schedule: Q01DX005 (ip), vehicle: saline): 91 % of control
- T/C (dose: 80.0 mg/kg/injection, schedule: Q01DX005 (ip), vehicle: saline): 95 % of control
- T/C (dose: 160.0 mg/kg/injection, schedule: Q01DX005 (ip), vehicle: saline): 100 % of control

Structure (SMILES): O=S1(=O)CC2(N3CCOCC3)CCCCC21 (stereo not drawn)
- T/C [2]: 102 % of control
- T/C [3]: 104 % of control

Structure (SMILES): CCOC(=O)c1c(C)[nH]c2c(-c3ccccc3)c3cc(Cl)ccc3nc12
- T/C [10]: 100 % of control
- T/C [11]: 104 % of control
- T/C [12]: 94 % of control
- T/C [13]: 94 % of control

Structure (SMILES): C1OC1CO[C@@H]1CO[C@H]2[C@@H]1OC[C@H]2OCC1CO1 (stereo partly drawn)
- T/C [14]: 94 % of control
- T/C [5]: 94 % of control
- T/C [1]: 87 % of control
- T/C [6]: 115 % of control
- T/C [2]: 97 % of control
- T/C [7]: 104 % of control
- T/C (dose: 100.0 mg/kg/injection, schedule: Q04DX003 (ip), vehicle: saline with Tween-80): 116 % of control
- T/C (dose: 200.0 mg/kg/injection, schedule: Q01DX009 (ip), vehicle: saline): 326 % of control
- T/C (dose: 266.0 mg/kg/injection, schedule: Q04DX003 (ip), vehicle: saline with Tween-80): 104 % of control
- T/C (dose: 400.0 mg/kg/injection, schedule: Q01DX009 (ip), vehicle: saline): 327 % of control
- T/C (dose: 600.0 mg/kg/injection, schedule: Q04DX003 (ip), vehicle: saline with Tween-80): 109 % of control

Structure (SMILES): COc1ccc(NC(=O)c2cccc(C(=O)Nc3ccc(OC)cc3)c2)cc1
- T/C [11]: 102 % of control
- T/C [12]: 108 % of control
- T/C [13]: 102 % of control

Structure (SMILES): Cc1ccc(Cl)cc1NS(=O)(=O)c1cccc([N+](=O)[O-])c1
- T/C [1]: 111 % of control
- T/C [2]: 107 % of control
- T/C [3]: 100 % of control

Structure (SMILES): Cc1cccc2c(C(=O)O)cc(-c3ccc(Cl)cc3)nc12
- T/C [8]: 97 % of control
- T/C [9]: 97 % of control
- T/C [1]: 95 % of control

Structure (SMILES): CCC1OCCN1C(C)C (stereo not drawn)
- T/C [5]: 102 % of control
- T/C [6]: 106 % of control

Structure (SMILES): CCCOP(OCCC)OCCC
- T/C (dose: 6.25 mg/kg/injection, schedule: Q01DX009 (ip), vehicle: saline): 109 % of control
- T/C [14]: 118 % of control
- T/C [5]: 100 % of control
- T/C [6]: 92 % of control

Structure (SMILES): C/C1=C/C2=CC(C)C[C@@H]2C(=O)[C@]2(C)C(=O)CC(C)(C)[C@H]2CC1=O (stereo partly drawn)
- T/C (dose: 0.13 mg/kg/injection, schedule: Q01DX009 (ip), vehicle: Klucel (hydroxypropylcellulose) (HPC)): 102 % of control
- T/C (dose: 0.25 mg/kg/injection, schedule: Q01DX009 (ip), vehicle: Klucel (hydroxypropylcellulose) (HPC)): 96 % of control
- T/C (dose: 0.5 mg/kg/injection, schedule: Q01DX009 (ip), vehicle: Klucel (hydroxypropylcellulose) (HPC)): 96 % of control
- T/C (dose: 1.0 mg/kg/injection, schedule: Q01DX009 (ip), vehicle: Klucel (hydroxypropylcellulose) (HPC)): 91 % of control

Structure (SMILES): O=C1C=CC(=O)c2c(Cl)ccc(O)c21
- T/C (dose: 0.63 mg/kg/injection, schedule: Q01DX009 (ip), vehicle: Klucel (hydroxypropylcellulose) (HPC)): 90 % of control
- T/C (dose: 1.25 mg/kg/injection, schedule: Q01DX009 (ip), vehicle: Klucel (hydroxypropylcellulose) (HPC)): 95 % of control
